The values below come from ChEMBL document CHEMBL3045236, “Conventional and microwave techniques for synthesis and antimicrobial studies of novel 1-[2-(2-chloro(3-quinolyl))-5-(4-nitrophenyl)-(1,3,4-oxadiazolin-3-yl)]-3-(aryl)prop-2-en-1-ones” (2012).

What all share (assay type): functional
Experiment [1] concerns Aspergillus clavatus. The experiment is described as follows: Antimicrobial activity against Aspergillus clavatus MTCC 1323.
Experiment [2] concerns Aspergillus niger. The experiment is described as follows: Antimicrobial activity against Aspergillus niger MTCC 282.
Experiment [3] deals with Candida albicans. The experiment is described as follows: Antimicrobial activity against Candida albicans MTCC 227.
The test system of experiment [4] is Streptococcus pyogenes. The experiment is described as follows: Antimicrobial activity against Streptococcus pyogenes MTCC 442 after 24 and 48 hr by serial broth dilution method.
The subject of experiment [5] is Staphylococcus aureus. The experiment can be described thus: Antimicrobial activity against Staphylococcus aureus MTCC 96 after 24 and 48 hr by serial broth dilution method. On the technique in general: Broth dilution looks for growth in wells or tubes with falling amounts of substance.
Experiment [6] concerns Pseudomonas aeruginosa. The experiment is described as follows: Antimicrobial activity against Pseudomonas aeruginosa MTCC 1688 after 24 and 48 hr by serial broth dilution method.
Experiment [7] has as its system Escherichia coli. The experiment is described as follows: Antimicrobial activity against Escherichia coli MTCC 443 after 24 and 48 hr by serial broth dilution method.

Molecules are shown by their SMILES. Values after ≈ are worked out from the molar mass of the structure shown.

One may read the MIC as the lowest concentration found to suppress growth. Read a low MIC as greater potency.

For `O=C(/C=C/c1cccc(O)c1)N1N=C(c2ccc([N+](=O)[O-])cc2)OC1c1cc2ccccc2nc1Cl` (stereo unspecified), the minimal inhibitory concentration (MIC) in experiment [1] turned out to be 100 µg/mL (≈ 200 µM); in experiment [2] it was 200 µg/mL (≈ 399 µM); in experiment [3] it was 500 µg/mL (≈ 998 µM); in experiment [4], 100 µg/mL (≈ 200 µM); in experiment [5] it was 200 µg/mL (≈ 399 µM); in experiment [6] it was 50 µg/mL (≈ 99.8 µM). Also, it took 25 µg/mL (≈ 49.9 µM) to inhibit growth in experiment [7] (MIC).
Take `O=C(/C=C/c1ccc(Cl)cc1)N1N=C(c2ccc([N+](=O)[O-])cc2)OC1c1cc2ccccc2nc1Cl` (stereo unspecified): the MIC was found to be 1000 µg/mL (≈ 1930 µM) in experiment [1]; 200 µg/mL (≈ 385 µM) in experiment [2]; 100 µg/mL (≈ 193 µM) in experiment [3]; 500 µg/mL (≈ 963 µM) in experiment [4]; 1000 µg/mL (≈ 1930 µM) in experiment [5]; 100 µg/mL (≈ 193 µM) in experiment [6]. The molecule also gave an MIC in experiment [7] of 200 µg/mL (≈ 385 µM).
As to `O=C(/C=C/c1ccccc1Cl)N1N=C(c2ccc([N+](=O)[O-])cc2)OC1c1cc2ccccc2nc1Cl` (stereo unspecified), the MIC in experiment [1] was determined as 500 µg/mL (≈ 963 µM); in experiment [2], 500 µg/mL (≈ 963 µM); in experiment [3], 250 µg/mL (≈ 481 µM); in experiment [4], 500 µg/mL (≈ 963 µM); in experiment [5], 500 µg/mL (≈ 963 µM); in experiment [6] it was 500 µg/mL (≈ 963 µM). In experiment [7], this molecule registered an MIC of 500 µg/mL (≈ 963 µM).
On to `CC1(C)S[C@@H]2[C@H](NC(=O)[C@H](N)c3ccccc3)C(=O)N2[C@H]1C(=O)O` [AMPICILLIN], for which the MIC in experiment [4] came out at 100 µg/mL (≈ 286 µM); in experiment [5], 250 µg/mL (≈ 715 µM); in experiment [6] it was 100 µg/mL (≈ 286 µM); in experiment [7], 100 µg/mL (≈ 286 µM).
In the case of `COc1ccc(/C=C/C(=O)N2N=C(c3ccc([N+](=O)[O-])cc3)OC2c2cc3ccccc3nc2Cl)cc1` (stereo unspecified), the MIC in experiment [1] was 100 µg/mL (≈ 194 µM); in experiment [2], 1000 µg/mL (≈ 1940 µM); in experiment [3] it was 500 µg/mL (≈ 971 µM); in experiment [4], 100 µg/mL (≈ 194 µM); in experiment [5], 100 µg/mL (≈ 194 µM); in experiment [6] it was 500 µg/mL (≈ 971 µM). The molecule also showed an MIC in experiment [7] of 100 µg/mL (≈ 194 µM).
Turning to `COc1cc(/C=C/C(=O)N2N=C(c3ccc([N+](=O)[O-])cc3)OC2c2cc3ccccc3nc2Cl)cc(OC)c1OC` (stereo unspecified), the MIC stood at 100 µg/mL (≈ 174 µM) in experiment [1]; 100 µg/mL (≈ 174 µM) in experiment [2]; 100 µg/mL (≈ 174 µM) in experiment [3]; 500 µg/mL (≈ 870 µM) in experiment [4]; 500 µg/mL (≈ 870 µM) in experiment [5]; 200 µg/mL (≈ 348 µM) in experiment [6]. This molecule also registered an MIC in experiment [7] of 200 µg/mL (≈ 348 µM).
`Cc1ccc(/C=C/C(=O)N2N=C(c3ccc([N+](=O)[O-])cc3)OC2c2cc3ccccc3nc2Cl)cc1` (stereo unspecified): the MIC in experiment [1] was 1000 µg/mL (≈ 2000 µM); in experiment [2], 100 µg/mL (≈ 200 µM); in experiment [3], 250 µg/mL (≈ 501 µM); in experiment [4] it was 250 µg/mL (≈ 501 µM); in experiment [5] it was 200 µg/mL (≈ 401 µM); in experiment [6], 100 µg/mL (≈ 200 µM). This molecule also yielded an MIC in experiment [7] of 200 µg/mL (≈ 401 µM).
Regarding `O=C(/C=C/c1ccc(O)cc1)N1N=C(c2ccc([N+](=O)[O-])cc2)OC1c1cc2ccccc2nc1Cl` (stereo unspecified), the MIC in experiment [1] came to 500 µg/mL (≈ 998 µM); in experiment [2], 100 µg/mL (≈ 200 µM); in experiment [3] it was 500 µg/mL (≈ 998 µM); in experiment [4], 500 µg/mL (≈ 998 µM); in experiment [5] it was 100 µg/mL (≈ 200 µM); in experiment [6], 50 µg/mL (≈ 99.8 µM). Inhibition of growth in experiment [7] (MIC) required 250 µg/mL (≈ 499 µM).
For the molecule `O=C(/C=C/c1cccc([N+](=O)[O-])c1)N1N=C(c2ccc([N+](=O)[O-])cc2)OC1c1cc2ccccc2nc1Cl` (stereo unspecified), the MIC was found to be 500 µg/mL (≈ 944 µM) in experiment [1]; 100 µg/mL (≈ 189 µM) in experiment [2]; 100 µg/mL (≈ 189 µM) in experiment [3]; 100 µg/mL (≈ 189 µM) in experiment [4]; 500 µg/mL (≈ 944 µM) in experiment [5]; 500 µg/mL (≈ 944 µM) in experiment [6]. Further, in experiment [7], the MIC was 1000 µg/mL (≈ 1890 µM).
On to `O=C(/C=C/c1cccc(Cl)c1)N1N=C(c2ccc([N+](=O)[O-])cc2)OC1c1cc2ccccc2nc1Cl` (stereo unspecified), for which the MIC in experiment [1] worked out at 500 µg/mL (≈ 963 µM); in experiment [2], 100 µg/mL (≈ 193 µM); in experiment [3], 100 µg/mL (≈ 193 µM); in experiment [4] it was 100 µg/mL (≈ 193 µM); in experiment [5], 100 µg/mL (≈ 193 µM); in experiment [6] it was 200 µg/mL (≈ 385 µM). In experiment [7], this molecule gave an MIC of 100 µg/mL (≈ 193 µM).
For the molecule `O=C(/C=C/c1ccc([N+](=O)[O-])cc1)N1N=C(c2ccc([N+](=O)[O-])cc2)OC1c1cc2ccccc2nc1Cl` (stereo unspecified), the minimum inhibitory concentration (MIC) came out at 100 µg/mL (≈ 189 µM) in experiment [1]; 1000 µg/mL (≈ 1890 µM) in experiment [2]; 500 µg/mL (≈ 944 µM) in experiment [3]; 500 µg/mL (≈ 944 µM) in experiment [4]; 100 µg/mL (≈ 189 µM) in experiment [5]; 500 µg/mL (≈ 944 µM) in experiment [6]. This molecule came in with a minimal inhibitory concentration (MIC) in experiment [7] of 100 µg/mL (≈ 189 µM).
For the molecule `O=C(/C=C/c1ccccc1[N+](=O)[O-])N1N=C(c2ccc([N+](=O)[O-])cc2)OC1c1cc2ccccc2nc1Cl` (stereo unspecified), the MIC was 100 µg/mL (≈ 189 µM) in experiment [1]; 500 µg/mL (≈ 944 µM) in experiment [2]; 500 µg/mL (≈ 944 µM) in experiment [3]; 200 µg/mL (≈ 377 µM) in experiment [4]; 500 µg/mL (≈ 944 µM) in experiment [5]; 50 µg/mL (≈ 94.4 µM) in experiment [6]. This molecule also returned a minimal inhibitory concentration (MIC) in experiment [7] of 50 µg/mL (≈ 94.4 µM).
Turning to `O=C(/C=C/c1ccccc1O)N1N=C(c2ccc([N+](=O)[O-])cc2)OC1c1cc2ccccc2nc1Cl` (stereo unspecified), the minimum inhibitory concentration (MIC) in experiment [1] amounted to 500 µg/mL (≈ 998 µM); in experiment [2] it was 500 µg/mL (≈ 998 µM); in experiment [3] it was 1000 µg/mL (≈ 2000 µM); in experiment [4], 250 µg/mL (≈ 499 µM); in experiment [5] it was 500 µg/mL (≈ 998 µM); in experiment [6], 250 µg/mL (≈ 499 µM). In experiment [7], this molecule gave an MIC of 500 µg/mL (≈ 998 µM).
Take `COC1=CC(=O)C[C@@H](C)[C@]12Oc1c(Cl)c(OC)cc(OC)c1C2=O` [GRISEOFULVIN]: the MIC in experiment [1] amounted to 100 µg/mL (≈ 283 µM); in experiment [2] it was 100 µg/mL (≈ 283 µM); in experiment [3], 500 µg/mL (≈ 1420 µM).
